Source: ChEMBL document CHEMBL3526158, “Contributions of arylacetamide deacetylase and carboxylesterase 2 to flutamide hydrolysis in human liver” (Drug Metab Dispos, 2012)

Experiments:
[1] = target: T1, Arylacetamide deacetylase (Homo sapiens, UniProt P22760); test: Drug metabolism assessed as human recombinant AADAC-mediated compound hydrolysis expressed in SF21 cells at 50 uM; assay type: ADME; details: sf21, 50 µM
T1 sequence (P22760 whole entry): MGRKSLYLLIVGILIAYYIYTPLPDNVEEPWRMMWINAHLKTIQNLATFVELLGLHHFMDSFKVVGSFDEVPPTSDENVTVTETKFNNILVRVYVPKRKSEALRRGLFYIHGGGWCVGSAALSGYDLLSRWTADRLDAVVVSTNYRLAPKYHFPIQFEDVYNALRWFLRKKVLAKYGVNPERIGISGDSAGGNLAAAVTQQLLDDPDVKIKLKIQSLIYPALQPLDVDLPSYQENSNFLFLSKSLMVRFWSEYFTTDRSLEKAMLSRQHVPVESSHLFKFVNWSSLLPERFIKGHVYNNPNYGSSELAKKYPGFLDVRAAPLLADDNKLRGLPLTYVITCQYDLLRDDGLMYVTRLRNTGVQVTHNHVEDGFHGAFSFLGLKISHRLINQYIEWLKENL

Cocaine esterase [2] = target: T2, Cocaine esterase (Homo sapiens, UniProt O00748); test: Drug metabolism assessed as human recombinant CES2-mediated compound hydrolysis at 2 uM; assay type: ADME; details: recombinant enzyme
T2 sequence (O00748 whole entry): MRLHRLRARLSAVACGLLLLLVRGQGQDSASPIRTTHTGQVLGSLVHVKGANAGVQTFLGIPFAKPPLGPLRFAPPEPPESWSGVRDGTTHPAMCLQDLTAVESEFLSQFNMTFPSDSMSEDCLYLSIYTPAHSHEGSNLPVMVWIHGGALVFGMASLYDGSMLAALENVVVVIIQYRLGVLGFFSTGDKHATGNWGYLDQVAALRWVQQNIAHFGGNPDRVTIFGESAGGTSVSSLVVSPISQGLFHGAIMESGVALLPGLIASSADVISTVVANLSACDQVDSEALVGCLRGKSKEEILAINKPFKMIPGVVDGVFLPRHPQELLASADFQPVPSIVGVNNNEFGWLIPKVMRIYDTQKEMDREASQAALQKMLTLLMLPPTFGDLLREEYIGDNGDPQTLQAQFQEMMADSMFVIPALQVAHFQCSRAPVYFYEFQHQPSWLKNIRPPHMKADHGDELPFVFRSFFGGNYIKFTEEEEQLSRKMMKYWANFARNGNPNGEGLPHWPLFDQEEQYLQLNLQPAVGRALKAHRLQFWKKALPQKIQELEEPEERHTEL

Cocaine esterase [3] = target: T2, Cocaine esterase; test: Drug metabolism assessed as loperamide-mediated inhibition of CES2-mediated compound hydrolysis in human jejunum microsomes at 5 uM relative to control; assay type: ADME; set-up: scale not given: the % may be the effect or the level left
Cocaine esterase [4] = target: T2, Cocaine esterase; test: Drug metabolism assessed as loperamide-mediated inhibition of CES2-mediated compound hydrolysis in human liver cytosol at 5 uM relative to control; assay type: ADME, tissue-based; set-up: scale not given: the % may be the effect or the level left
Liver carboxylesterase 1 = target: T3, Liver carboxylesterase 1 (Homo sapiens, UniProt P23141); test: Drug metabolism assessed as human recombinant CES1-mediated compound hydrolysis at 5 uM; assay type: ADME; details: recombinant enzyme
T3 sequence (P23141 whole entry): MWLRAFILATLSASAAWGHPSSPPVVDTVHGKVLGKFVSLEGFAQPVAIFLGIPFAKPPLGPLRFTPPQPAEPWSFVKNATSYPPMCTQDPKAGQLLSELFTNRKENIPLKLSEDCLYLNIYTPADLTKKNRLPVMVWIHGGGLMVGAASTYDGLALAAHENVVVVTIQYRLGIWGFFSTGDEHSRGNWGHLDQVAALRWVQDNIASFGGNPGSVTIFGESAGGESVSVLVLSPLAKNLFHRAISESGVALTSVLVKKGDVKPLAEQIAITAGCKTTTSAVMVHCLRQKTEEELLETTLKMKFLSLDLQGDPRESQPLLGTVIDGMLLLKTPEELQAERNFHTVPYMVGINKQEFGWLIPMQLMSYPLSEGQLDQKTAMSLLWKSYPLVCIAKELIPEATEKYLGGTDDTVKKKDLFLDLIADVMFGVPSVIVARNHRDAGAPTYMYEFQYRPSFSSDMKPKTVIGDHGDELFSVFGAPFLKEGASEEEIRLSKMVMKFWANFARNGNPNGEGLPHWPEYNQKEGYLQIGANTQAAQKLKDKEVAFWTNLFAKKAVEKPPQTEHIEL

Cocaine esterase [5] = target: T2, Cocaine esterase; test: Inhibition of human recombinant CES2 assessed as compound hydrolysis
Cocaine esterase [6] = target: T2, Cocaine esterase; test: Intrinsic clearance assessed as ratio of Vmax to Km for human recombinant CES2; assay type: ADME; details: recombinant enzyme
CES2 (cocaine esterase) [7] = target: T4, CES2 (cocaine esterase) (Homo sapiens, UniProt O00748); test: Drug metabolism assessed as loperamide-mediated inhibition of human recombinant CES2-mediated compound hydrolysis measured as enzyme activity at 5 uM relative to control; assay type: ADME; set-up: scale not given: the % may be the effect or the level left; details: recombinant CES2, with loperamide (concentration not clearly stated), read-out: Activity
T4 sequence (O00748 whole entry): T2 sequence (O00748 whole entry)

[8] = target: T5, AADAC (arylacetamide deacetylase) (Homo sapiens, UniProt P22760); test: Drug metabolism assessed as loperamide-mediated inhibition of human recombinant AADAC-mediated compound hydrolysis expressed in SF21 cells measured as enzyme activity at 5 uM relative to control; assay type: ADME; set-up: scale not given: the % may be the effect or the level left; details: with loperamide (concentration not clearly stated), read-out: Activity
T5 sequence (P22760 whole entry): T1 sequence (P22760 whole entry)

Cocaine esterase [9] = target: T2, Cocaine esterase; test: Drug metabolism assessed as loperamide-mediated inhibition of CES2-mediated compound hydrolysis in human liver microsomes at 5 uM relative to control; assay type: ADME; set-up: scale not given: the % may be the effect or the level left
Cocaine esterase [10] = target: T2, Cocaine esterase; test: Drug metabolism assessed as human recombinant CES2-mediated compound hydrolysis at 5 uM; assay type: ADME; details: recombinant enzyme
Cocaine esterase [11] = target: T2, Cocaine esterase; test: Drug metabolism assessed as human recombinant CES2-mediated compound hydrolysis at 50 uM; assay type: ADME; details: recombinant enzyme
Cocaine esterase [12] = target: T2, Cocaine esterase; test: Drug metabolism assessed as human recombinant CES2-mediated compound hydrolysis at 200 uM; assay type: ADME; details: recombinant enzyme
[13] = target: T1, Arylacetamide deacetylase; test: Drug metabolism assessed as human recombinant AADAC-mediated compound hydrolysis at 5 uM; assay type: ADME
[14] = target: T1, Arylacetamide deacetylase; test: Drug metabolism assessed as human recombinant AADAC-mediated compound hydrolysis at 200 uM; assay type: ADME
[15] = target: T5, AADAC (arylacetamide deacetylase); test: Drug metabolism assessed as AADAC-mediated compound hydrolysis in human liver homogenates at 5 to 200 uM; assay type: ADME, tissue-based; details: read-out: Drug metabolism
Cocaine esterase [16] = target: T2, Cocaine esterase; test: Drug metabolism assessed as CES2-mediated compound hydrolysis in human liver homogenates at 5 to 200 uM; assay type: ADME, tissue-based; details: tissue homogenate
[17] = target: T5, AADAC (arylacetamide deacetylase); test: Drug metabolism assessed as AADAC-mediated compound hydrolysis in human liver homogenates at 5 uM; assay type: ADME, tissue-based; details: read-out: Drug metabolism
[18] = target: T5, AADAC (arylacetamide deacetylase); test: Drug metabolism assessed as AADAC-mediated compound hydrolysis in human liver homogenates at 50 uM; assay type: ADME, tissue-based; details: read-out: Drug metabolism
[19] = target: T5, AADAC (arylacetamide deacetylase); test: Drug metabolism assessed as AADAC-mediated compound hydrolysis in human liver homogenates at 200 uM; assay type: ADME, tissue-based; details: read-out: Drug metabolism
CES2 (cocaine esterase) [20] = target: T4, CES2 (cocaine esterase); test: Drug metabolism assessed as CES2-mediated compound hydrolysis in human liver homogenates at 5 uM; assay type: ADME, tissue-based; details: read-out: Drug metabolism
CES2 (cocaine esterase) [21] = target: T4, CES2 (cocaine esterase); test: Drug metabolism assessed as CES2-mediated compound hydrolysis in human liver homogenates at 50 uM; assay type: ADME, tissue-based; details: read-out: Drug metabolism
CES2 (cocaine esterase) [22] = target: T4, CES2 (cocaine esterase); test: Drug metabolism assessed as CES2-mediated compound hydrolysis in human liver homogenates at 200 uM; assay type: ADME, tissue-based; details: read-out: Drug metabolism

In the case of `CO[C@H]1/C=C/O[C@@]2(C)Oc3c(C)c(O)c4c(O)c(c(/C=N/N5CCN(C)CC5)c(O)c4c3C2=O)NC(=O)/C(C)=C\C=C\[C@H](C)[C@H](O)[C@@H](C)[C@@H](O)[C@@H](C)[C@H](OC(C)=O)[C@@H]1C` [RIFAMPIN], the Drug metabolism [1] is reported as 41.77 pmol/min/mg and the Drug metabolism (Cocaine esterase [2]) is reported as 2.99 pmol/min/mg.
With `CC(C)C(=O)Nc1ccc([N+](=O)[O-])c(C(F)(F)F)c1` [FLUTAMIDE] the Activity (Cocaine esterase [3]) was 18.6%, the Activity (Cocaine esterase [4]) was 15.7% and the Drug metabolism (Liver carboxylesterase 1) was “metabolite_not_detected”. For the same molecule, the Ki (Cocaine esterase [5]) was 2.3 µM, the Ratio (Cocaine esterase [6]) was 4.2 µL/min/mg and the activity at 5 µM (CES2 (cocaine esterase) [7]) was 7.7%. The activity at 5 µM [8] was 74.7%, the Activity (Cocaine esterase [9]) was 22.9% and the Drug metabolism [1] was 87.6 pmol/min/mg. The Drug metabolism (Cocaine esterase [10]) was 16 pmol/min/mg, the Drug metabolism (Cocaine esterase [11]) was 38.9 pmol/min/mg and the Drug metabolism (Cocaine esterase [12]) was 13.5 pmol/min/mg. For the same molecule, the Drug metabolism [13] was 3.1 pmol/min/mg, the Drug metabolism [14] was 389 pmol/min/mg and the metabolised at up to 200 µM [15] was 79.6%. For the same molecule, the Drug metabolism (Cocaine esterase [16]) was 170.4%, the metabolised at 5 µM [17] was 11.7% and the metabolised at 50 µM [18] was 53%. The metabolised at 200 µM [19] was 89.4%, the metabolised at 5 µM (CES2 (cocaine esterase) [20]) was 88.3% and the metabolised at 50 µM (CES2 (cocaine esterase) [21]) was 47%. For the same molecule, the metabolised at 200 µM (CES2 (cocaine esterase) [22]) was 10.6%.
